One test addresses equine serum BuChE (Equus caballus, UniProt P81908). Put plainly: biochemical. The following applies: pH 8, 37 °C, triplicate.
Test [1] concerns the target Electrophorus electricus AChE (eeAChE) (Electrophorus electricus, UniProt O42275). Put plainly: biochemical. It counts as biochemical. The following applies: pH 8, 37 °C, triplicate.

A value given as a limit tells only on which side of the number the result lay.

From PMC11311138, “Design of Promising Thiazoloindazole-Based Acetylcholinesterase Inhibitors Guided by Molecular Docking and Experimental Insights” (ACS Chemical Neuroscience, 2024) come the findings set out here.

The IC50 is the point on the concentration scale where inhibition reaches its midpoint. Low readings indicate greater potency in that assay, high ones weaker potency in that assay.

Chain of equine serum BuChE (P81908 whole entry): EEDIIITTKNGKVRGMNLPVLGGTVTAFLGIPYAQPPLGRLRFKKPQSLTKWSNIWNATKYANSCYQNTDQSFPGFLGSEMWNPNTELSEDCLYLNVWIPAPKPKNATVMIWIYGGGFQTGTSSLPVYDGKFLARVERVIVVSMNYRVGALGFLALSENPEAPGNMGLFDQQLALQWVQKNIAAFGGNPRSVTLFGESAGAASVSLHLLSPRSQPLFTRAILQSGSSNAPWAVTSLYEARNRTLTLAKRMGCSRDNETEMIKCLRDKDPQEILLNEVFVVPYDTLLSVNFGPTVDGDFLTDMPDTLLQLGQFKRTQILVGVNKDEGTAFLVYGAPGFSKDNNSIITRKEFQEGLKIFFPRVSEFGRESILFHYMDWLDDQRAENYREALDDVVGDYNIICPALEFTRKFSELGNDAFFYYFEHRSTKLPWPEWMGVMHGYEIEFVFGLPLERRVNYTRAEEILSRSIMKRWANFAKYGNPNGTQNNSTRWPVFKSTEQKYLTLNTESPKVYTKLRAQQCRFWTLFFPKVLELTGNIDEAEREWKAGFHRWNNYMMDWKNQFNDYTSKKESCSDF
Chain of Electrophorus electricus AChE (eeAChE) (O42275 24-633): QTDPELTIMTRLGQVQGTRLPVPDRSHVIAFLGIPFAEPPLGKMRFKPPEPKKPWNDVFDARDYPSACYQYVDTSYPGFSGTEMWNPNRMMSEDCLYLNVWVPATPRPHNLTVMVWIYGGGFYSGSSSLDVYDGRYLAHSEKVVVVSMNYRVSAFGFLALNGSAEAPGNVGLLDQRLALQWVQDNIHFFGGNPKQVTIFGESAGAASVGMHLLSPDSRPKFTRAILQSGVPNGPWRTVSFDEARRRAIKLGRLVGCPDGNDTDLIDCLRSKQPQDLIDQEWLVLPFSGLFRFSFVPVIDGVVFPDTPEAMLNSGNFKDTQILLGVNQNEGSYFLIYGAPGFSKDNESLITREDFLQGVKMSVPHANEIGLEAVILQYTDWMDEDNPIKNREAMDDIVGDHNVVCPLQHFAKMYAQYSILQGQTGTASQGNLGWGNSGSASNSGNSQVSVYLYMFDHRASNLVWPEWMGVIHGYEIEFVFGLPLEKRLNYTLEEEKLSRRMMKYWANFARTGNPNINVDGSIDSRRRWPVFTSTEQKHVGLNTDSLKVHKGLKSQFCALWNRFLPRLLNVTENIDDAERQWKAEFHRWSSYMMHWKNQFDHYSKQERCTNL

Consider `Cn1ncc2c3sc(N)nc3ccc21` [5a, 6-Methyl-6H-thiazolo[5,4-e]indazol-2-amine], for which the IC50 (against equine serum BuChE; in test [1]) was above 50 µM throughout.
As to `CCn1ncc2c3sc(N)nc3ccc21` [5b, 6-Ethyl-6H-thiazolo[5,4-e]indazol-2-amine], the IC50 (at equine serum BuChE; in test [1]) was above 50 µM throughout.
Consider `Cn1ncc2ccc3nc(N)sc3c21` [5c, 1-Methyl-1H-thiazolo[4,5-g]indazol-7-amine], for which the IC50 (on equine serum BuChE; in test [1]) was above 50 µM each time.
As to `CCn1ncc2ccc3nc(N)sc3c21` [5d, 1-Ethyl-1H-thiazolo[4,5-g]indazol-7-amine], the IC50 (on equine serum BuChE; in test [1]) was above 50 µM throughout.
Consider `Cn1nc(Cl)c2c3sc(N)nc3ccc21` [5e, 8-Chloro-6-methyl-6H-thiazolo[5,4-e]indazol-2-amine], for which the IC50 (against equine serum BuChE; in test [1]) was above 50 µM each time.
As to `Cn1ncc2c3sc(NC(=O)CCl)nc3ccc21` [6a, 2-Chloro-N-(6-methyl-6H-thiazolo[5,4-e]indazol-2-yl)acetamide], the IC50 at equine serum BuChE was above 50 µM; in test [1], 14.3 ± 2.62 µM.
For `CCn1ncc2c3sc(NC(=O)CCl)nc3ccc21` [6b, 2-Chloro-N-(6-ethyl-6H-thiazolo[5,4-e]indazol-2-yl)acetamide], in that order: above 50 µM and 13.2 ± 2.71 µM.
The like results for `Cn1nc(Cl)c2c3sc(NC(=O)CCl)nc3ccc21` [6c, 2-Chloro-N-(8-chloro-6-methyl-6H-thiazolo[5,4-e]indazol-2-yl)acetamide] were, in that order, above 50 µM and above 25 µM.
The like results for `Cn1ncc2c3sc(NC(=O)CN=[N+]=[N-])nc3ccc21` [7a, 2-Azido-N-(6-methyl-6H-thiazolo[5,4-e]indazol-2-yl)acetamide] were, in that order, above 50 µM and above 50 µM.
For the compound `CCn1ncc2c3sc(NC(=O)CN=[N+]=[N-])nc3ccc21` [7b, 2-Azido-N-(6-ethyl-6H-thiazolo[5,4-e]indazol-2-yl)acetamide], the half-maximal inhibitory concentration (IC50) on equine serum BuChE is above 50 µM; in test [1], 0.54 ± 0.11 µM.
For `Cn1nc(Cl)c2c3sc(NC(=O)CN=[N+]=[N-])nc3ccc21` [7c, 2-Azido-N-(8-chloro-6-methyl-6H-thiazolo[5,4-e]indazol-2-yl)acetamide], in that order: above 50 µM and 2.26 ± 0.09 µM.
The like results for `Cn1ncc2c3sc(NC(=O)Cn4cc(-c5cc(C(F)(F)F)cc(C(F)(F)F)c5)nn4)nc3ccc21` [TI45a, 2-(4-(3,5-bis(Trifluoromethyl)phenyl)-1H-1,2,3-triazol-1-yl)-N-(6-methyl-6H-thiazolo[5,4-e]indazol-2-yl)acetamide] were, in that order, above 50 µM and above 50 µM.
As for `CCn1ncc2c3sc(NC(=O)Cn4cc(-c5cc(C(F)(F)F)cc(C(F)(F)F)c5)nn4)nc3ccc21` [TI45b, 2-(4-(3,5-bis(Trifluoromethyl)phenyl)-1H-1,2,3-triazol-1-yl)-N-(6-ethyl-6H-thiazolo[5,4-e]indazol-2-yl)acetamide], the IC50 on equine serum BuChE is above 50 µM; in test [1], 0.071 ± 0.014 µM.
In the case of `Cn1nc(Cl)c2c3sc(NC(=O)Cn4cc(-c5cc(C(F)(F)F)cc(C(F)(F)F)c5)nn4)nc3ccc21` [TI45c, 2-(4-(3,5-bis(Trifluoromethyl)phenyl)-1H-1,2,3-triazol-1-yl)-N-(8-chloro-6-methyl-6H-thiazolo[5,4-e]indazol-2-yl)acetamide], the IC50 (against equine serum BuChE; in test [1]) was above 50 µM each time.
As to `Cn1ncc2c3sc(NC(=O)Cn4c5ccccc5c5ccccc54)nc3ccc21` [TI58a, 2-(9H-carbazol-9-yl)-N-(6-methyl-6H-thiazolo[5,4-e]indazol-2-yl)acetamide], the half-inhibitory concentration (IC50) (on equine serum BuChE; in test [1]) was above 50 µM throughout.
Take `CCn1ncc2c3sc(NC(=O)Cn4c5ccccc5c5ccccc54)nc3ccc21` [TI58b, 2-(9H-carbazol-9-yl)-N-(6-ethyl-6H-thiazolo[5,4-e]indazol-2-yl)acetamide]: the half-inhibitory concentration (IC50) at equine serum BuChE was above 50 µM. In addition, in test [1], the “AChE IC50” value is listed as “did not experimentally show any activity against AChE” and the concentration for half-maximal inhibition (IC50) was above 50 µM.
For `Cn1nc(Cl)c2c3sc(NC(=O)Cn4c5ccccc5c5ccccc54)nc3ccc21` [TI58c, 2-(9H-carbazol-9-yl)-N-(8-chloro-6-methyl-6H-thiazolo[5,4-e]indazol-2-yl)acetamide], the IC50 (against equine serum BuChE; in test [1]) was above 50 µM each time.
